We go through two compounds from patent publication EP1507508B1, “COMPOSITION CONTAINING A PEPTIDE AND A PIGMENT AND THE USE THEREOF IN DARKENING THE SKIN” (JOHNSON & JOHNSON CONSUMER COMPANIES, INC., priority 2002, dated 2003).

The assay deals with Dark skinned Yucatan microswine. Description: Induced pigmentation in vivo, topical treatment, Fontana-Mason stained skin sections scored for pigment deposition. Particulars: average of all sites of responsive swine; topical twice a day, five days/week, eight or nine weeks; positive controls 1% (W/V), pigments 1% or 5% (W/V), peptides 250 µM or 500µM, combinations with pigments at 1%(W/V). Here is the method: Compositions were tested for their ability to induce in vivo pigmentation in skin cells in the following experiment. Dark skinned Yucatan microswine (Charles River, Portland, ME) were housed in appropriately sized cages in an environmentally controlled room with a 12-hour light - 12-hour dark photoperiod and supplied with food and water ad libitum. Animal care was based on the "Guide for the Care and Use of Laboratory Animals", NIH Publication No. 85-23. Twenty µl of test peptides were applied topically, twice a day, five days/week, for eight or nine weeks, on the dorsum of the swine. Treatments of individual swine were always arranged in a head to tail order on one side, and in a tail to head order on the other side of the animal. Biopsies were taken using standard techniques.
F&M staining identifies silver nitrate reducing molecules. In skin, this non-specific stain identifies primarily melanin. At least three sections per biopsy were processed. Each experiment was repeated at least three times.
Swine were treated with either: the known skin darkening agent forskolin (Sigma) or with a Coleus forskoli extract (ATZ Naturals, Englewood Cliffs, NJ) which contains forskolin, as a positive control at 1% (W/V); pigments at 1% or 5% (W/V); peptides at 250 µM or 500µM; and combinations of such peptides at 250 µM or 500µM with pigments at 1%(W/V). […]

Consider “H2-Val-Gly-Val-Ala-Pro-Gly-NH2 (H-VGVAPG-NH2) [Peptide 1]”, for which the Score was found to be 1.
For `C=C[C@@]1(C)CC(=O)[C@]2(O)[C@@]3(C)[C@@H](O)CCC(C)(C)[C@@H]3[C@H](O)[C@H](OC(C)=O)[C@@]2(C)O1` [Forskolin], the Score is recorded as 1.
